# Like-named read-outs stand apart in the source and are kept apart here.
# Legend:
# barnyardgrass [1] = assay: Test B pre-/postemergence herbicide test; assay type: in vivo, Echinochloa crus-galli; settings: for pest or weed control at 125 g/ha / pest or weed control at 500 g/ha: Echinochloa crus-galli; for pest or weed control at 125 g/ha: 125 g ai/ha; for pest or weed control at 500 g/ha: 500 g ai/ha
# Outline: (§1)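 Seeds were planted and treated preemergence with compounds formulated in a non-phytotoxic solvent mixture containing surfactant, while plants at the 1- to 4-leaf stage (2 to 18 cm) received postemergence sprays. Flooded paddy plants were grown to the 2-leaf stage. After 13 to 15 days in a greenhouse, injury was visually rated 0–100 against untreated controls.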
# Surinam grass = assay: Test B pre-/postemergence herbicide test; assay type: in vivo, Urochloa decumbens; settings: for pest or weed control at 125 g/ha / pest or weed control at 500 g/ha: Urochloa decumbens; for pest or weed control at 125 g/ha: 125 g ai/ha; for pest or weed control at 500 g/ha: 500 g ai/ha
# Outline: (§2)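 Evaluation is visual, comparing treated with control plants on a scale where 0 means no effect and 100 means full control. Treatments were preemergence, or postemergence on seedlings 2–18 cm tall, and held 13–15 days in the greenhouse.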
# cocklebur = assay: Test B pre-/postemergence herbicide test; assay type: in vivo, Xanthium strumarium; settings: for pest or weed control at 125 g/ha / pest or weed control at 500 g/ha: Xanthium strumarium; for pest or weed control at 125 g/ha: 125 g ai/ha; for pest or weed control at 500 g/ha: 500 g ai/ha
# Outline: as §1
# large crabgrass = assay: Test B pre-/postemergence herbicide test; assay type: in vivo, Digitaria sanguinalis; settings: for pest or weed control at 125 g/ha / pest or weed control at 500 g/ha: Digitaria sanguinalis; for pest or weed control at 125 g/ha: 125 g ai/ha; for pest or weed control at 500 g/ha: 500 g ai/ha
# Outline: as §2
# giant foxtail = assay: Test B pre-/postemergence herbicide test; assay type: in vivo, Setaria faberi; settings: for pest or weed control at 125 g/ha / pest or weed control at 500 g/ha: Setaria faberi, 336 h; for pest or weed control at 125 g/ha: 125 g ai/ha; for pest or weed control at 500 g/ha: 500 g ai/ha
# Outline: as §2
# lambsquarters = assay: Test B pre-/postemergence herbicide test; assay type: in vivo, Chenopodium album; settings: for pest or weed control at 125 g/ha / pest or weed control at 500 g/ha: Chenopodium album, 336 h; for pest or weed control at 125 g/ha: 125 g ai/ha; for pest or weed control at 500 g/ha: 500 g ai/ha
# Outline: as §2
# morningglory = assay: Test B pre-/postemergence herbicide test; assay type: in vivo, Ipomoea coccinea; settings: for pest or weed control at 125 g/ha / pest or weed control at 500 g/ha: Ipomoea, 336 h; for pest or weed control at 125 g/ha: 125 g ai/ha; for pest or weed control at 500 g/ha: 500 g ai/ha
# Outline: as §1
# pigweed = assay: Test B pre-/postemergence herbicide test; assay type: in vivo, Amaranthus retroflexus; settings: for pest or weed control at 125 g/ha / pest or weed control at 500 g/ha: Amaranthus retroflexus, 336 h; for pest or weed control at 125 g/ha: 125 g ai/ha; for pest or weed control at 500 g/ha: 500 g ai/ha
# Outline: as §2
# velvetleaf = assay: Test B pre-/postemergence herbicide test; assay type: in vivo, Abutilon theophrasti; settings: for pest or weed control at 125 g/ha / pest or weed control at 500 g/ha: Abutilon theophrasti, 336 h; for pest or weed control at 125 g/ha: 125 g ai/ha; for pest or weed control at 500 g/ha: 500 g ai/ha
# Outline: as §2
# blackgrass = assay: Test B postemergence herbicide test; assay type: in vivo, Alopecurus myosuroides
# Outline: (§3)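 Postemergence plants were sprayed with formulated test chemicals at 2 to 18 cm height (1- to 4-leaf stage); paddy species were grown to the 2-leaf stage. After 13 to 15 days in a greenhouse, injury was rated visually against untreated controls on a 0–100 scale (0 = no effect, 100 = complete control).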
# wheat = assay: Test B postemergence herbicide test; assay type: in vivo, Triticum aestivum; design: key to Wheat plant response rating: 0 = no effect, 100 = complete control
# Outline: (§4)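 Each value is a visual 0–100 response rating taken against controls 13 to 15 days after treatment in the greenhouse. Plants received formulated chemical postemergence at the 1- to 4-leaf stage or, in flooded paddy, at the 2-leaf stage.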
# rice = assay: Test B flooded paddy test; assay type: in vivo, Oryza sativa; settings: 1000 g ai/ha, visual rating, scale 0 to 100 (0 no effect, 100 complete control), 13 to 15 days
# Outline: as §4
# [2] = tested on: small flower umbrella sedge; assay: Test B flooded paddy test; assay type: in vivo, Cyperus difformis; settings: 1000 g ai/ha, visual rating, scale 0 to 100 (0 no effect, 100 complete control), 13 to 15 days
# Outline: as §3
# ducksalad = assay: Test B flooded paddy test; assay type: in vivo, Heteranthera limosa; settings: 1000 g ai/ha, visual rating, scale 0 to 100 (0 no effect, 100 complete control), 13 to 15 days
# Outline: as §3
# barnyardgrass [3] = assay: Test B flooded paddy test; assay type: in vivo, Echinochloa crus-galli; settings: 1000 g ai/ha, visual rating, scale 0 to 100 (0 no effect, 100 complete control), 13 to 15 days
# Outline: as §3
# [4] = post-emergence, postemergence, visual rating, scale 0 (no effect) to 100 (complete control), read-out: Barnyardgrass plant response rating
# [5] = post-emergence, postemergence, visual rating, scale 0 (no effect) to 100 (complete control), read-out: Surinam Grass plant response rating
# [6] = post-emergence, postemergence, visual rating, scale 0 (no effect) to 100 (complete control), read-out: Cocklebur plant response rating
# [7] = post-emergence, postemergence, visual rating, scale 0 (no effect) to 100 (complete control), read-out: Crabgrass, Large plant response rating
# [8] = post-emergence, postemergence, visual rating, scale 0 (no effect) to 100 (complete control), read-out: Foxtail, Giant plant response rating
# [9] = post-emergence, postemergence, visual rating, scale 0 (no effect) to 100 (complete control), read-out: Lambsquarters plant response rating
# [10] = post-emergence, postemergence, visual rating, scale 0 (no effect) to 100 (complete control), read-out: Morningglory plant response rating
# [11] = post-emergence, postemergence, visual rating, scale 0 (no effect) to 100 (complete control), read-out: Pigweed plant response rating
# [12] = post-emergence, postemergence, visual rating, scale 0 (no effect) to 100 (complete control), read-out: Velvetleaf plant response rating
# [13] = Postemergence, 250 g ai/ha, scale 0 (no effect) to 100 (complete control)
# [14] = postemergence, 62 g ai/ha, scale 0 to 100
structure (smiles),measurement,setting,value
"CCn1nc(C(C)(C)C)cc1C(=O)Nc1cc(C(=O)OC)ccn1 [Compound 151, methyl 2-[[[3-(1,1-dimethylethyl)-1-ethyl-1H-pyrazol-5-yl]carbonyl]amino]-4-pyridinecarboxylate]",pest or weed control at 125 g/ha,barnyardgrass [1]; [4],0%
same,pest or weed control at 500 g/ha,barnyardgrass [1]; [4],10%
same,pest or weed control at 500 g/ha,"barnyardgrass [1]; pre-emergence, visual rating 0-100, 0 no effect, 100 complete control, read-out: Plant response rating, Barnyardgrass",10%
same,pest or weed control at 125 g/ha,"barnyardgrass [1]; pre-emergence, preemergence, 0 to 100 scale, 0 is no effect, 100 is complete control, read-out: Plant response rating, Barnyardgrass",0%
same,pest or weed control at 125 g/ha,Surinam grass; [5],10%
same,pest or weed control at 500 g/ha,Surinam grass; [5],10%
same,pest or weed control at 500 g/ha,"Surinam grass; pre-emergence, visual rating 0-100, 0 no effect, 100 complete control, read-out: Plant response rating, Surinam Grass",10%
same,pest or weed control at 125 g/ha,"Surinam grass; pre-emergence, preemergence, 0 to 100 scale, 0 is no effect, 100 is complete control, read-out: Plant response rating, Surinam Grass",0%
same,pest or weed control at 125 g/ha,cocklebur; [6],0%
same,pest or weed control at 500 g/ha,cocklebur; [6],0%
same,pest or weed control at 500 g/ha,"cocklebur; pre-emergence, visual rating 0-100, 0 no effect, 100 complete control, read-out: Plant response rating, Cocklebur",0%
same,pest or weed control at 125 g/ha,"cocklebur; pre-emergence, preemergence, 0 to 100 scale, 0 is no effect, 100 is complete control, read-out: Plant response rating, Cocklebur",0%
same,pest or weed control at 125 g/ha,large crabgrass; [7],0%
same,pest or weed control at 500 g/ha,large crabgrass; [7],0%
same,pest or weed control at 500 g/ha,"large crabgrass; pre-emergence, visual rating 0-100, 0 no effect, 100 complete control, read-out: Plant response rating, Crabgrass, Large",10%
same,pest or weed control at 125 g/ha,"large crabgrass; pre-emergence, preemergence, 0 to 100 scale, 0 is no effect, 100 is complete control, read-out: Plant response rating, Crabgrass, Large",0%
same,pest or weed control at 125 g/ha,giant foxtail; [8],10%
same,pest or weed control at 500 g/ha,giant foxtail; [8],20%
same,pest or weed control at 500 g/ha,"giant foxtail; pre-emergence, visual rating 0-100, 0 no effect, 100 complete control, read-out: Plant response rating, Foxtail, Giant",10%
same,pest or weed control at 125 g/ha,"giant foxtail; pre-emergence, preemergence, 0 to 100 scale, 0 is no effect, 100 is complete control, read-out: Plant response rating, Foxtail, Giant",0%
same,pest or weed control at 125 g/ha,lambsquarters; [9],0%
same,pest or weed control at 500 g/ha,lambsquarters; [9],50%
same,pest or weed control at 500 g/ha,"lambsquarters; pre-emergence, visual rating 0-100, 0 no effect, 100 complete control, read-out: Plant response rating, Lambsquarters",0%
same,pest or weed control at 125 g/ha,"lambsquarters; pre-emergence, preemergence, 0 to 100 scale, 0 is no effect, 100 is complete control, read-out: Plant response rating, Lambsquarters",0%
same,pest or weed control at 125 g/ha,morningglory; [10],10%
same,pest or weed control at 500 g/ha,morningglory; [10],30%
same,pest or weed control at 500 g/ha,"morningglory; pre-emergence, visual rating 0-100, 0 no effect, 100 complete control, read-out: Plant response rating, Morningglory",0%
same,pest or weed control at 125 g/ha,"morningglory; pre-emergence, preemergence, 0 to 100 scale, 0 is no effect, 100 is complete control, read-out: Plant response rating, Morningglory",0%
same,pest or weed control at 125 g/ha,pigweed; [11],10%
same,pest or weed control at 500 g/ha,pigweed; [11],30%
same,pest or weed control at 500 g/ha,"pigweed; pre-emergence, visual rating 0-100, 0 no effect, 100 complete control, read-out: Plant response rating, Pigweed",0%
same,pest or weed control at 125 g/ha,"pigweed; pre-emergence, preemergence, 0 to 100 scale, 0 is no effect, 100 is complete control, read-out: Plant response rating, Pigweed",0%
same,pest or weed control at 125 g/ha,velvetleaf; [12],10%
same,pest or weed control at 500 g/ha,velvetleaf; [12],20%
same,pest or weed control at 500 g/ha,"velvetleaf; pre-emergence, visual rating 0-100, 0 no effect, 100 complete control, read-out: Plant response rating, Velvetleaf",0%
same,pest or weed control at 125 g/ha,"velvetleaf; pre-emergence, preemergence, 0 to 100 scale, 0 is no effect, 100 is complete control, read-out: Plant response rating, Velvetleaf",0%
same,pest or weed control at 125 g/ha,"blackgrass; Alopecurus myosuroides, post-emergence, 336 h, postemergence, 125 g ai/ha, visual rating, scale 0 (no effect) to 100 (complete control), read-out: Blackgrass plant response rating",10%
same,pest or weed control at 500 g/ha,"blackgrass; Alopecurus myosuroides, post-emergence, 336 h, postemergence, 500 g ai/ha, visual rating, scale 0 (no effect) to 100 (complete control), read-out: Blackgrass plant response rating",30%
same,plant injury at 500 g/ha,"wheat; Triticum aestivum, post-emergence, 336 h, postemergence, 500 g ai/ha, visual rating, scale 0 (no effect) to 100 (complete control), read-out: Wheat plant response rating",20%
same,plant injury at 1000 g/ha,"rice; Oryza sativa, 336 h, read-out: Rice plant response rating",0%
same,pest or weed control at 1000 g/ha,"[2]; Cyperus difformis, 336 h, read-out: Sedge, Umbrella plant response rating",60%
same,pest or weed control at 1000 g/ha,"ducksalad; Heteranthera limosa, 336 h, read-out: Ducksalad plant response rating",0%
same,pest or weed control at 1000 g/ha,"barnyardgrass [3]; Echinochloa crus-galli, 336 h, read-out: Barnyardgrass plant response rating",0%
CCNC(=O)c1ccnc(NC(=O)c2cc(C(C)(C)C)nn2CC)c1 [Compound 152],Barnyardgrass plant response rating,barnyardgrass [1]; [13],40
same,Barnyardgrass plant response rating,barnyardgrass [1]; [14],30
same,Surinam Grass plant response rating,Surinam grass; [13],40
same,Surinam Grass plant response rating,Surinam grass; [14],30
same,Cocklebur plant response rating,cocklebur; [13],90
same,Cocklebur plant response rating,cocklebur; [14],60
same,"Crabgrass, Large plant response rating",large crabgrass; [13],20
same,"Crabgrass, Large plant response rating",large crabgrass; [14],10
same,"Foxtail, Giant plant response rating",giant foxtail; [13],20
same,"Foxtail, Giant plant response rating",giant foxtail; [14],10
same,Lambsquarters plant response rating,lambsquarters; [13],80
same,Lambsquarters plant response rating,lambsquarters; [14],70
same,Morningglory plant response rating,morningglory; [13],60
same,Morningglory plant response rating,morningglory; [14],50
same,Pigweed plant response rating,pigweed; [13],90
same,Pigweed plant response rating,pigweed; [14],50
same,Velvetleaf plant response rating,velvetleaf; [13],50
same,Velvetleaf plant response rating,velvetleaf; [14],50
same,Blackgrass plant response rating,blackgrass; [13],20
same,Blackgrass plant response rating,blackgrass; [14],20
same,Wheat plant response rating,"wheat; 250 g ai/ha, scale 0 to 100, 0 no effect, 100 complete control, preemergence",100
same,Wheat plant response rating,wheat; [13],10
same,Wheat plant response rating,wheat; [14],10
same,Rice plant response rating,rice,70
same,"Sedge, Umbrella plant response rating",[2],90
same,Ducksalad plant response rating,ducksalad,80
same,Barnyardgrass plant response rating,barnyardgrass [3],80

# — US20060069132A1, “Azolecarboxamide herbicides” (priority 2004, published 2006)
